# Reference: patent publication US20140186329A1, “POLYPHENOL ANALOGS TO TREAT ISCHEMIA” (priority 2011, published 2014)
# pEC50: −log10 of the molar value. Where two headings read alike, the source gives them in different places.
# Key:
# HT22 cells = assay: In vitro ischemia assay (HT22 cell IAA assay, MTT); assay type: cell-based, mouse; settings: 20 μM IAA; for pEC50: read-out: HT22 Cell IAA assay EC50; for percent protection from IAA-induced cell death at 0.1 µM: HT-22, compound 100 nM
# Procedure, shortened: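 Mouse HT22 hippocampal cells in DMEM/7.5% DFCS exposed 2 hr to 20 μM iodoacetic acid with or without derivative, then 20 hr in IAA-free medium still containing derivative. Viability by MTT (2.5 μg/ml, 4 hr, 37 °C), absorbance at 570 nm.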
# [1] = test system: primary mouse cortical neurons; assay: Primary cortical cell glutamate excitotoxicity assay; assay type: cell-based; settings: 10 μM glutamate, compound 100 nM
# Procedure: (§1) FIG. 5 illustrates pharmacological effects of Baicalein on cultured cells. (A) Trophic factor withdrawal. Primary cortical neurons are prepared from 18-day-old rat embryos, and cultured at low cell density 1×10^6/35 mm dish, in serum containing medium with Baicalein (10-10,000 nM), and viability assayed 2 days later using a live-dead assay. (B) Excitotoxicity assay was done with E14 mouse primary cortical neuron cultures. After 11 days of culture, cells were exposed to 10 μM glutamate for 10 min, followed by the addition of varying concentrations of Baicalein (0.2-5 μM). Cell viability was determined 24 hr later with a standard MTT assay. (C) PC12 cells were glucose-deprived then were incubates in the absence or presence of Baicalein. Cell viability was determined 24 hr later using the MTT assay. (D) RCG-5 nerve cells were treated with 30 μM iodoacetic acid for 2 hr in the presence or absence of 5-25 μM Baicalein. In some experiments, Baicalein was added 2 hr after the ischemic event. Cell survival (%) was measured after 24 hr by the MTT assay. Baicalein added before (□) or 2 hr after ([…]) ischemia.
# Primary cultures of cortical neurons that die due to excitotoxicity were prepared as described previously. Briefly, BALB/c mouse embryo cortices were minced and treated with 0.1% trypsin for 20 min. After centrifugation, the cells are resuspended in 827 Neurobasal medium (Invitrogen) plus 10% fetal calf serum and are dissociated by repeated pipetting through a 1 mL blue Eppendorf pipette tip. Then the cells are plated at 1×10^5 cells per well in 96-well poly-L-lysine and laminin-coated microtiter plates (Becton Dickinson, Bedford, Mass., USA) in 827 Neurobasal plus 10% fetal calf serum and 20% glial growth-conditioned medium. Two days later the medium is aspirated and replaced by serum-free 827 Neurobasal medium plus 10 μg/mL cytosine arabinoside. The cultures are used without media change 11 days after plating and are essentially free of astrocytes. They are exposed to 10 μM glutamate followed by varying concentrations of the compounds. Cell viability is determined 24 h later using the fluorescent live/dead assay. Glial conditioned medium is prepared from confluent rat astrocyte cultures. The cells are washed twice with serum-free medium and incubated for 2 days in serum-free Neurobasal medium to produce the growth conditioned medium.
# (1) ≧80% cell survival in mouse HT22 hippocampal cells in the presence of 20 μM iodoacetic acid (IAA) (in vitro ischemia model). See, Maher, et al., Brain Res. 2007, 1173:117-25. (2) ≧35% cell survival in primary mouse cortical neurons in the presence of 10 μM glutamate (in vitro excitotoxicity assay). See, Ishige, et al., Free Radic Biol Med, 2001, 30(4): p. 433-46.
# PC12 cells = assay: Glucose starvation; assay type: cell-based; settings: MTT 24 hr
# Procedure: as §1, with “ischemia. […] When these cells are starved for glucose, there is approximately 70% maximal survival in the presence of NGF. Baicalein promotes over 80% survival (FIG. 5C).” for “ischemia.”
compound,measurement,setting,value
"Cc1ccc2oc(-c3ccc(O)c(O)c3)c(O)c(=O)c2c1 [PM-010, 2-(3,4-dihydroxyphenyl)-3-hydroxy-6-methyl-4H-chromen-4-one]",pEC50,HT22 cells; HT22 cells,7.34
same,percent protection from IAA-induced cell death at 0.1 µM,HT22 cells; Mus musculus,89%
same,Primary Cortical Cell assay-Glutamate (% protection @ 100 nM),[1],65%
"CCCc1ccc2oc(-c3ccc(O)c(O)c3)c(O)c(=O)c2c1 [PM-012, 2-(3,4-dihydroxyphenyl)-3-hydroxy-6-propyl-4H-chromen-4-one]",pEC50,HT22 cells; HT22 cells,7.21
same,pEC50,"HT22 cells; Mus musculus, HT-22, HT22 cells",7.42
same,percent protection from IAA-induced cell death at 0.1 µM,HT22 cells; Mus musculus,80%
same,Primary Cortical Cell assay-Glutamate (% protection @ 100 nM),[1],82%
"NGF: NGF, comparator in the PC12 glucose starvation assay",survival of glucose-starved cells,PC12 cells,approximately 70%
"O=c1cc(-c2cc(O)c(O)c(O)c2)oc2ccccc12 [PM-008, 3′,4′,5′-trihydroxyflavone]",pEC50,HT22 cells; HT22 cells,7.38
same,percent protection from IAA-induced cell death at 0.1 µM,HT22 cells; Mus musculus,88%
same,Primary Cortical Cell assay-Glutamate (% protection @ 100 nM),[1],100%
"CCc1ccc2oc(-c3ccc(O)c(O)c3)c(O)c(=O)c2c1 [PM-013, 2-(3,4-dihydroxyphenyl)-6-ethyl-3-hydroxy-4H-chromen-4-one]",pEC50,HT22 cells; HT22 cells,7.21
same,percent protection from IAA-induced cell death at 0.1 µM,HT22 cells; Mus musculus,81%
same,Primary Cortical Cell assay-Glutamate (% protection @ 100 nM),[1],51%
